Measurements taken from patent US5106851A, “Benzofused-N-containing heterocycle derivatives” (Istituto de Angeli S.p.A., priority 1989, dated 1992).
pEC50, pKd: −log10 of the molar value. Like-named read-outs stand apart in the source and are kept apart here.

Key:
[1] = molecular target: T1, Muscarinic M2 (Rattus norvegicus, UniProt P10980); assay: Displacement of 3H-NMS from total heart homogenate (receptor binding studies in vitro)
T1 construct: displacement of ^3 H-NMS from total heart homogenate; from tissue; host or cells: total heart homogenate
T1 sequence (P10980 1-466): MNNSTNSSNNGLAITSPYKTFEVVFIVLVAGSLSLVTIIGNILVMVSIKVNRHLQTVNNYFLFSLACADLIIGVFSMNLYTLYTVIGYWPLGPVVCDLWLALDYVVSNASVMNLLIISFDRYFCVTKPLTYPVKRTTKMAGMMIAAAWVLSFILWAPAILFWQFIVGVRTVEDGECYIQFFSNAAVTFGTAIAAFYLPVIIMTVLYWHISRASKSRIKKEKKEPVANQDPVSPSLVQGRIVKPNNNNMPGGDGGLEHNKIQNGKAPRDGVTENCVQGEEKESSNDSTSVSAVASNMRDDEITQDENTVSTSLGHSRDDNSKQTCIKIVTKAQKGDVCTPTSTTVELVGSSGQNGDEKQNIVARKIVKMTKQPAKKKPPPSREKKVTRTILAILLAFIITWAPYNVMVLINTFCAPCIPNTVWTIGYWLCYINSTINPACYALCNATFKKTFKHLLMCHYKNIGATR
Method: (§1) Muscarinic M1 activity was determined by studying the displacement of ^3 H-pirenzepine from cerebral cortex homogenate according to the procedure reported below: The cerebral cortex donors were male CD-COOBBS rats, 220-250 g body weight. The homogenization process was carried out in a Potter-Evelhjem apparatus in the presence of Na^+ /Mg^++ HEPES buffer; pH 7.4 (100 mM NaCl, 10 mM MgCl2, 20 mM HEPES); by filtering the suspension through two layers of cheesecloth. Binding curves for the under study compounds were derived indirectly from competition experiments against 0.5 nM ^3 H-pirenzepine labelling the muscarinic receptors of the cerebral cortex. 1 ml of the homogenate was incubated for 45 min at 30° C. in the presence of a maker ligand and different concentration of the cold ligand, conditions under which equilibrium was reached as determined by appropriate association experiments. The incubation was terminated by centrifugation (12,000 rpm for 3 min) at room temperature using an Eppendorf microcentrifuge. The resultant pellet was washed twice with 1.5 ml saline to remove the free radioactivity and it was allowed to dry. The tips of the tubes containing the pellet were cut off and 200 μl of tissue solubilizer (Lumasolve, Lumac) were added and left to stand overnight. Radioactivity was then counted after addition of 4 ml of liquid scintillation mixture (Dimilume/Toluene 1+10 v:v, Packard).
(§2) Assays were carried out in triplicate or quadruplicate and the non-specificbinding was defined as the radioactivity bound or entrapped in the pellet when the incubation medium contained 1 μM atropine sulphate. Non-specific binding averaged less than 30%. KD values (dissociation constants) were obtained by non-linear regression analysis on the basis of one binding site model with TOPFIT-pharmacokinetic programme package (G. Heinzel "Pharmacokinetics During Drug Development: Data Analysis and Evaluation Techniques" Eds. G. Bolzer and J. M. Van Rossum; p. 207, G. Fisher, New York, 1982) after correction for the radioligand occupancy shift according to the equation: KD =IC50 /1+*C/*KD, where *C and *KD represent the concentration and the dissociation constants of the radioligand, used respectively. Muscarinic M2 activity was examined by studing the displacement of ^3 H-NMS from total heart homogenate according to a procedure identical to the one already described hereinbefore for the muscarinic M1 activity.

[2] = molecular target: T2, guinea pig left atria (Cavia porcellus, UniProt H0VRN8); assay: Functional studies in vitro, guinea pig paced left atria, bethanechol negative inotropic effect
T2 construct: guinea pig paced left atria; from tissue; host or cells: isolated guinea pig left atria
T2 sequence (H0VRN8 1-466): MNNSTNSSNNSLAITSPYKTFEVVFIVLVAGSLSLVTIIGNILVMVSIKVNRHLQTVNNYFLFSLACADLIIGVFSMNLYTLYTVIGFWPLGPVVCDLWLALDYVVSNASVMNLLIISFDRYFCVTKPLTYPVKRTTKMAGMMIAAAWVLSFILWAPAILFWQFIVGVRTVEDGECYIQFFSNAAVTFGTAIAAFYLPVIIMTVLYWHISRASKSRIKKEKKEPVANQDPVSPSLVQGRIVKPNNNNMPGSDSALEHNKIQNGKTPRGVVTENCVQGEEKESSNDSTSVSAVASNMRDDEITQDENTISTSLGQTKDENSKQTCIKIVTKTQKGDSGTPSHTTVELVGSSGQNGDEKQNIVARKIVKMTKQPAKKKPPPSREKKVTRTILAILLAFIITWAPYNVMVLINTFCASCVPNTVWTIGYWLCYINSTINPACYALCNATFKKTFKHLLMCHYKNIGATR
Source text: (§3) Antimuscarinic activity and selectivity were examined in in vitro by receptor binding studies in two tissues endowed with M1 and M2 muscarinic receptors (cerebral cortex, heart), in functional studies in isolated guinea pig ileum and guinea pig paced left atria and in in vivo functional tests on bronchi and heart of the anaesthetized guinea pig.
The tissues were mounted in the Ewen's solution (millimolar: NaCl, 131.6; KCl, 5.6; CaCl2, 2.16; NaHCO3, 24.9; NaH2 PO4, 1.03; glucose, 11; and sucrose, 13) at 32° C. and stimulated through platinum electrodes by squarewave pulses (2 msec, 3 Hz, 100% above threshold voltage, delivered by a Grass S 48 stimulator). Inotropic activity was recorded isometrically (Statham transducer, Battaglia Rangoni ESO 300 recorder). Cumulative concentrations of bethanecol (1-30 μM) were used to induce a negative inotropic effect. Kb values were estimated as above described.

[3] = molecular target: T3, guinea pig ileum (Cavia porcellus, UniProt H0W1Z3); assay: Functional studies in vitro, isolated guinea pig ileum contracted with bethanechol
T3 construct: A 2 cm section of terminal ileum was prepared; from tissue; host or cells: isolated guinea pig terminal ileum
Method: as §3
Responses were recorded isotonically. Kb values were calculated according to Arunlakshana and Shild (British Journal of Pharmacology 14, 48-54, 1959).

[4] = molecular target: T4, Muscarinic M1 (Rattus norvegicus, UniProt P08482); assay: Displacement of 3H-pirenzepine from cerebral cortex homogenate (receptor binding studies in vitro)
T4 construct: displacement of ^3 H-pirenzepine from cerebral cortex homogenate; from tissue; host or cells: rat cerebral cortex homogenate
T4 sequence (P08482 1-460): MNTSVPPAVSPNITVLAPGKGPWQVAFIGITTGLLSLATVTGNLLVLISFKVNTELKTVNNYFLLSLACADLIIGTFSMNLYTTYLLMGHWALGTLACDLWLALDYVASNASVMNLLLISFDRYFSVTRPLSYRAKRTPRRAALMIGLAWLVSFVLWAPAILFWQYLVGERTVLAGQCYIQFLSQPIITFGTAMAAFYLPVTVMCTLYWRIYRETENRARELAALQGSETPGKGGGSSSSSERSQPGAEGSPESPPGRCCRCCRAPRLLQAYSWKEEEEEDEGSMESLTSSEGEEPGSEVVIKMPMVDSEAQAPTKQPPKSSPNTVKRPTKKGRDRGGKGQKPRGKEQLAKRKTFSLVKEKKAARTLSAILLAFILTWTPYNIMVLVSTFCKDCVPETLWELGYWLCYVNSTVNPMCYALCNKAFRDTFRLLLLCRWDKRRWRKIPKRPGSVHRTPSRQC
Method: as §1, §2

[5] = test system: muscarinic responses in guinea pig longitudinal ileum and guinea pig paced left atria; details: prototype compound, in words; cited from earlier work
[6] = test system: receptors with low affinity to Pirenzepine (M2 type); details: mainly in effector organs; cited from earlier work
[7] = test system: Muscarinic receptors in the heart; assay: In vivo inhibition of acetylcholine-induced bradycardia in the anaesthetized guinea pig; details: Cavia porcellus, iv, 5 min; i.v., 5 min before acetylcholine 50 μg/kg; dose in mol/kg; read-out: -log ED50, heart (converted)
Method: (§4) Guinea pigs of either sex (550-600 g) were anaesthetized with urethane (1.4 g/kg, i.p.). A jugular vein was cannulated for injection of drugs. Heparin (200 I.U./kg) was injected i.v. A cannula was placed in the trachea and the animals were artificially respirated with oxygenated room air by means of a positive pressure pump (Braun-Melsungen) with a rate of 80 strokes/min. A side arm of the tracheal cannula was connected to a water manometer of 10 cm height. The respiratory volume was adjusted so that the maximal intratracheal pressure during inspiration just attained to a pressure of 10 cm water.
A cannula was placed in the left common carotid artery and arterial blood pressure was measured via a Bell and Howell 4-327 I pressure transducer connected to an IFD recording device. Cardiac frequency was measured by a ratemeter, triggered by the arterial pulsewave.
The drugs to be tested were injected via the jugular vein and 5 min later bronchial resistence (%) and the decrease in cardiac frequence (beats/min) to acetylcholine (50 μg/kg i.v. and i.a.) was measured. Dose response curves were constructed by plotting the percent inhibition of bronchoconstriction and bradycardia against the logarithm of the dose (mol/kg) of the drugs to be tested.

[8] = test system: Muscarinic receptors in the bronchi; assay: In vivo inhibition of acetylcholine-induced bronchoconstriction in the anaesthetized guinea pig; details: Cavia porcellus, iv, 5 min; i.v., 5 min before acetylcholine 50 μg/kg; dose in mol/kg; read-out: -log ED50, bronchi (converted)
Method: as §4
Excepts for some modifications, the effects of the drugs on bronchial tone was measured according to the method described by Konzett and Rossler (1940). The bronchoconstriction-evoked volume of respiratory gas mixture (overflow) passing through the water manometer was measured by means of a FLEISCH tube pneumotachometer (Model 0000) connected to a SP 2040 D differential pressure transducer (HSE). Registration was performed on a IFD recording device. […]
The drugs to be tested were injected via the jugular vein and 5 min later bronchial resistence (%) and the decrease in cardiac frequence (beats/min) to acetylcholine (50 μg/kg i.v. and i.a.) was measured. […]

[9] = total heart homogenate, 3H-NMS, read-out: KD, M2 (heart)

T3 sequence (H0W1Z3 1-590): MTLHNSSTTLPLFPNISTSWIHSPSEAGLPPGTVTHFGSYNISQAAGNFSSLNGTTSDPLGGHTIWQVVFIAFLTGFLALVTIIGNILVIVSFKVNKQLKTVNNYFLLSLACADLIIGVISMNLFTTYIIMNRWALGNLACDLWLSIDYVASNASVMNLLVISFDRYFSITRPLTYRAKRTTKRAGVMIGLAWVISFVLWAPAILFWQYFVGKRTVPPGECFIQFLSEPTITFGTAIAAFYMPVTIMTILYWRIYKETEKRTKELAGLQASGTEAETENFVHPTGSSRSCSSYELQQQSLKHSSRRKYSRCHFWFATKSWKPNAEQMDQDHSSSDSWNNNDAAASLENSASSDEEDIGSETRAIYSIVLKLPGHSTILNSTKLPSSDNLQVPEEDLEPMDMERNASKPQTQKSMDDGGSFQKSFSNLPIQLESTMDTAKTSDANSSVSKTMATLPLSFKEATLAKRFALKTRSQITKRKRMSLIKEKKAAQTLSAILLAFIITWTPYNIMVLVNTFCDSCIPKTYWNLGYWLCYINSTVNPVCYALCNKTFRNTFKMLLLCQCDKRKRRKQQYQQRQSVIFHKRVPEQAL

| SMILES | pKd [1, 9] | Kb [2] | Kb [3] | pKd [4] | further results |
| --- | --- | --- | --- | --- | --- |
| CN1[C@@H]2CC[C@H]1C[C@@H](OC(=O)N1Cc3ccc(Cl)cc3NC1=O)C2 [Compound 25, 7-chloro-1,4-dihydro-2(H)-2-oxo-3-quinazoline carboxylic acid-(endo-8-methyl-8-azabicyclo[3.2.1]oct-3-yl), ester] | 5.83 | 2.2 µM | 0.016 µM | 8.15 | – |
| CCN(CC)CC1CCCCN1CC(=O)N1c2ccccc2C(=O)Nc2cccnc21 (centres unmarked) [AF-DX-116, 11-2-{[2-(diethylamino)methyl-1-piperidinyl]acetyl}-5,11-dihydro-6H-pyrido (2,3-b)(1,4)benzodiazepin-6-one] | – | – | – | – | tissue selectivity among muscarinic antagonists [5]: cardioselective |
| C[N+]1(C)CCC(OC(=O)C(c2ccccc2)c2ccccc2)CC1 [Compound 4-DAMP, 4-diphenylacetoxy-N-methylpiperidine methobromide] | – | – | – | – | tissue selectivity among muscarinic antagonists [5]: smooth muscle selective |
| CC(C[N+](C)(C)C)OC(N)=O (centres unmarked) [bethanechol, reference compound] | – | – | – | – | pEC50 ([3]; guinea pig terminal ileum, Tyrode solution, cumulative conc. 0.3-10 μM, read-out: EC50 of bethanechol (contraction)): 5.82 |
| CN1CCN(CC(=O)N2c3ccccc3C(=O)Nc3cccnc32)CC1 [Pirenzepine] | – | – | – | – | affinity at M2 type receptors [6]: low affinity |
| CN1[C@@H]2CC[C@H]1C[C@@H](OC(=O)N1Cc3cc(F)ccc3NC1=O)C2 [Compound 26, 1,4-dihydro-6-fluoro-2(H)-2-oxo-3-quinazoline carboxylic acid-(endo-8-methyl-8-azabicyclo[3.2.1]oct-3-yl), ester] | 6.40 | 0.25 µM | 0.0045 µM | 8.52 | – |
| CN1C2CCC1CC(OC(=O)N1C(=O)Nc3ccccc3C1O)C2 (stereo not drawn) [Compound 49, 1,4-dihydro-4-hydroxy-2(H)-2-oxo-3-quinazolinecarboxylic acid-(endo-8-methyl-8-azabicyclo[3.2.1]oct-3-yl), ester] | 6.60 | 0.075 µM | 0.001 µM | 8.70 | – |
| CN1[C@@H]2CC[C@H]1C[C@@H](OC(=O)N1Cc3ccccc3NC1=O)C2 [Compound 16, 1,4-dihydro-2(H)-2-oxo-3-quinazoline carboxylic acid-(endo-8-methyl-8-azabicyclo[3.2.1]oct-3-yl), ester] | – | 0.122 µM | 0.0015 µM | – | ED50 [7]: 1 µmol/kg; pKd [1]: 6.88; ED50 [8]: 0.00794 µmol/kg; pKd ([4]; cerebral cortex homogenate, 0.5 nM 3H-pirenzepine, 45 min at 30° C., pH 7.4, read-out: KD, M1 (cortex)): 9.00 |
| CN1[C@@H]2CC[C@H]1C[C@@H](NC(=O)N1Cc3ccccc3NC1=O)C2 [Compound 23, N-(endo-8-methyl-8-azabicyclo[3.2.1]oct-3-yl)-1,4-dihydro-2(H)-2-oxo-3-quinazoline carboxamide] | – | – | – | 9.00 | pKd [1]: 7.22; Kb ([2]; functional studies, guinea pig paced left atria, bethanechol 1-30 μM, 32° C., read-out: Kb, heart): 0.022 µM; Kb ([3]; functional studies, guinea pig ileum, bethanechol 0.3-10 μM, read-out: Kb, ileum): 0.0006 µM |
